Drawing on publication PMC12229235 (Science signaling, 2024), this text covers IC50 for 1 molecule.

SMILES strings stand for the structures.

For this test, the target named is AKT3 (Homo sapiens, UniProt Q9Y243). Kind of test: LANCE Ultra TR-FRET kinase assay with Ulight-crosstide substrate. It is filed as biochemical.
Chain of AKT3 (Q9Y243 2-479): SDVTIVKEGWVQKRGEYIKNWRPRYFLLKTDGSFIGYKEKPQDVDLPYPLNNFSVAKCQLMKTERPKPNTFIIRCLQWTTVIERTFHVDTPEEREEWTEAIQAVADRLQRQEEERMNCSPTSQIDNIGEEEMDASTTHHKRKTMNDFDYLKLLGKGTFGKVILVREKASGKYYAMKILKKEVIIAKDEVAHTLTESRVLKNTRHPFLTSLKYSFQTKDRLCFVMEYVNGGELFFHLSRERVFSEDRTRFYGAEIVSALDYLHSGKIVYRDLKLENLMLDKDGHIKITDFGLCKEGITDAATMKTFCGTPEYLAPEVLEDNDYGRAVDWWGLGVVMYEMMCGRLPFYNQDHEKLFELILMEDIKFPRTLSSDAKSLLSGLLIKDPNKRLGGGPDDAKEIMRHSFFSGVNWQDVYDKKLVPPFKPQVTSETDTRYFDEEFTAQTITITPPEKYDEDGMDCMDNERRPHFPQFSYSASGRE
Chain of AKT3 (O15530 whole entry partner): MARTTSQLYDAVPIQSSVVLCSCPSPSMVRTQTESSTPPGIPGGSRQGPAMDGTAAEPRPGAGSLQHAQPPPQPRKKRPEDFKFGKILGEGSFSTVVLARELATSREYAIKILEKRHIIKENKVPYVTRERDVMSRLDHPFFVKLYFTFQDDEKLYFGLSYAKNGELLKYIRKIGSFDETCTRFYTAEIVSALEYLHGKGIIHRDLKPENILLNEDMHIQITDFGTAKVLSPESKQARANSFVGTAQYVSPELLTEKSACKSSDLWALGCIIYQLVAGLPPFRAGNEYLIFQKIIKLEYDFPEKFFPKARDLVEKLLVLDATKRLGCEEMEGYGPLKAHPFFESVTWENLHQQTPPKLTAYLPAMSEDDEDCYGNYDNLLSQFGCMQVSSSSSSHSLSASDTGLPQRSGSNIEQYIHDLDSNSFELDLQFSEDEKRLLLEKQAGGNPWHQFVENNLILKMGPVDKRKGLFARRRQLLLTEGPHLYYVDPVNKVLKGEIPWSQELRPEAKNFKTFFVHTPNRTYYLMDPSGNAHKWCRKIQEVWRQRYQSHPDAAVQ

On to `CC(=O)N(C)[C@H]1CC[C@H](CC(=O)Nc2cc(-c3ccccc3)c(-c3ccc(C4(N)CCC4)cc3)cn2)CC1` [AKT3i, N-(5-(4-(1-aminocyclobutyl)phenyl)-4-phenylpyridin-2-yl)-2-((1r,4r)-4-(N-methylacetamido)cyclohexyl) acetamide], for which the IC50 worked out at 13 nM.
